The structures appear in SMILES notation. Converted amounts (≈) assume the structure as drawn.

Settings in the first data set: not given
Compound `CC(O)(C(=O)O)c1ccccc1` (stereo not given) returned a logP of 0.8. Still for that read-out and setting: under `COC1=C(OC)C(=O)C=CC1=O` stands 0.34; under `COC(=O)C(c1ccccc1)C(C)C` (stereo not given), 3.33; under `Cc1ccc([N+](=O)[O-])cc1C`, 2.91.

Take `Cc1cc(C)c(N)cc1C`: the logP was determined as 2.27.

Consider `CCOc1ccc([N+](=O)[O-])cc1NC(=O)CC`, for which the logP amounted to 1.85. In turn, `CC(C)NCc1ccccc1` registered a logP of 1.83. `CC(C)(O)C(=O)Nc1ccc([N+](=O)[O-])cc1` yielded a logP of 1.61. Still for that read-out and setting: under `Clc1ccc2ccccc2c1` stands 3.9; under `c1ccc2c(c1)ccc1nc3ccc4ccccc4c3cc12`, 5.63; under `CCCCCCN1CC(C(=O)OC)CC1=O` (stereo not given), 2.3. Consider `CC(O)CNc1ncc(-c2ccncc2)cc1C#N` (stereo not given), for which the logP turned out to be 0.79. On the same count and under the same terms, to `Cc1ccccc1OCCN(C)C` belongs 2.23. The compound `CC(=O)c1ccc(NCc2cnc3nc(N)nc(N)c3c2C)cc1` displayed a logP of 1.45. Same read-out and setting: under `CC(C)(O)C(=O)Nc1ccc([N+](=O)[O-])c(C(F)(F)F)c1` stands 2.7. On the same count and under the same terms, under `COc1cccc(N=c2snc3sc(S(N)(=O)=O)nn23)c1` stands 2.66; under `COC(=O)[C@@H](N)Cc1ccc(O)cc1`, 0.29. Still for that read-out and setting: to `COCC(C)OC(=O)C(N)Cc1ccc(O)c(O)c1` (stereo not given) belongs 0.08; to `C[N+](C)(C)CC1CCCC1.[I-]`, -2; to `CN1CCN(Cc2cccc(COc3ccccc3)c2)CC1`, 3.05.

`Nc1ccc(O)c([N+](=O)[O-])c1` displayed a logP of 0.96. Same read-out and setting: under `O=C1c2ccccc2C(=O)N1SC1CCCCC1` stands 3.66; under `O=C(O)c1c(C(=O)O)c(C(=O)O)c(C(=O)O)c(C(=O)O)c1C(=O)O`, 1.5. The same measure, in the same setting: to `Cc1ccc(C=[N+]([O-])c2ccccc2)cc1` belongs 2.41; to `CC=CCCCCC`, 4.51; to `Cc1ccc2oc(N(N)CCC#N)nc2c1`, 1.48. Same read-out and setting: under `c1ccc2[nH]c(-c3cscn3)nc2c1` stands 2.47. With `ON=C1CCCCC1`, the logP was found to be 0.84.

In the case of `ClC1=C(Cl)C2(Cl)C(CBr)CC1(Cl)C2(Cl)Cl` (stereo not given), the logP stood at 5.9. As for `O=C(Nc1ccc(O)cc1)C(Cl)Cl`, the logP came out at 1.6. The same measure, in the same setting: under `NS(=O)(=O)c1cc2c(cc1Cl)N=C(CSCc1ccccc1)NS2(=O)=O` stands 1.73; under `Cc1ccc(C(C)C)c(Cl)c1Cl`, 5.5; under `COc1cc(S(C)=O)ccc1-c1cn2cccnc2n1` (stereo not given), 0.63.

Compound `c1ccc2c(c1)Cc1cc3ccccc3cc1-2` returned a logP of 5.77.

Regarding `Cc1ccc2oc(-c3ccccc3C(=O)O)c(Br)c2c1`, the logP came out at 5.19. Same read-out and setting: under `C[C@H](CS)C(=O)N1CCC[C@H]1C(=O)O` stands 0.34; under `CCCCCCNC(=O)CCC(NS(=O)(=O)c1ccc(C)cc1)C(=O)O` (stereo not given), 0.84. With `c1ccc2c(c1)sc1ccccc12`, the solubility amounted to 0.00798 mM (≈ 1.47 µg/mL). Consider `Cc1cc(Cc2ccc(Cl)c(Cl)c2)c(Cl)cc1Cl`, for which the logP is 7.26. Still for that read-out and setting: to `CCN1CCC(CNC(=O)c2cc(S(=O)(=O)CC)ccc2OC)C1` (stereo not given) belongs 1.31; to `CCC(C)CO` (stereo not given), 1.29; to `COc1ccc(C(=O)CCCC(=O)O)cc1Cl`, 2.17. Same read-out and setting: under `COc1ccc(C(N)=S)cc1` stands 1.63; under `CC(C)(C)[C@@H](O)[C@@H](Cc1ccc(Cl)cc1)n1cncn1` (single isomer, unassigned), 3.2; under `COC(=O)C1CC(=O)N(C)C1` (stereo not given), -0.74. Still for that read-out and setting: to `CC1(C)C=C(C(=O)NCCCN2C(=O)c3ccccc3C2=O)C(C)(C)N1` belongs 1.58; to `CN(C)c1cccc([N+](=O)[O-])c1`, 2.16.

For `CC(C)CCOC(=O)c1cc(=O)[nH]c(=O)[nH]1`, the logP stood at 1.48. On the same count and under the same terms, to `O=C(O)CNC(=O)c1ccccc1I` belongs 0.97; to `CCOC1OC2OC3(C)CC(OC4OC(C(=O)O)C(O)C(O)C4O)C4C(C)CCC(C1C)C24OO3` (stereo not given), 1.73. Still for that read-out and setting: under `OCCC(F)(F)C(F)(F)C(F)(F)C(F)(F)C(F)(F)C(F)(F)C(F)(F)C(F)(F)F` stands 5.58; under `CCC(Oc1ccc(Cl)cc1C)C(=O)O` (stereo not given), 3.47. Still for that read-out and setting: to `O=C(O)C(c1ccc(Cl)cc1)c1ccc(Cl)cc1` belongs 4.64. For `COc1c2ccoc2cc2oc(=O)ccc12`, the logP amounted to 1.93. For `C=CC(=O)NCCCN(C)C`, the logP worked out at 0. `CC1CCC2C(C)C(OC3OC(C(=O)O)C(O)C(O)C3O)OC3OC4(C)CCC1C32OO4` (stereo not given) gave a logP of 1.08. Regarding `CCCCOCCNc1ccccc1C(N)=O`, the logP is 2.27.

On to `CCCCc1ccc(NC(=O)CN(CC(=O)O)CC(=O)O)cc1Br`, for which the logP is 0.1. On the same count and under the same terms, to `Brc1cccc(Oc2ccc(Br)c(Br)c2Br)c1` belongs 6.05. The same measure, in the same setting: under `COc1ccc(Oc2ccc(NC(=O)N(C)C)cc2)cc1` stands 2.54.

`NC(=O)CCCN=C(c1ccc(Cl)cc1)c1cc(F)ccc1O` came in with a logP of 3.06. For the compound `CCc1ccc2cc3ccccc3cc2c1`, the solubility amounted to 0.00013 mM (≈ 0.0268 µg/mL). In turn, `NS(=O)(=O)c1cc2c(cc1Cl)NC(C1CC3C=CC1C3)NS2(=O)=O` (stereo not given) yielded a logP of 1.95. The compound `COC(=O)c1sccc1S(=O)(=O)NC(=O)Nc1nc(C)nc(OC)n1` returned a logP of 1.56.

For the compound `Nc1ccc(C(=O)NCC(=O)O)cc1`, the logP is -0.89. Still for that read-out and setting: under `N=C(N)NN=Cc1ccc(Br)cc1` stands 1.3; under `OCCC(F)(F)C(F)(F)C(F)(F)C(F)(F)C(F)(F)C(F)(F)F`, 4.54; under `CC(C)=CC1C(C(=O)OCc2coc(Cc3ccccc3)c2)C1(C)C` (stereo not given), 6.14.

In turn, `OCc1ccccc1Cl` gave a logP of 1.77. Take `C=C(C)C1CC=C(C)CC1` (stereo not given): the logP worked out at 4.57. Same read-out and setting: under `CCc1ccc(C=[N+]([O-])C(C)(C)C)cc1` stands 2.19. Still for that read-out and setting: to `CC(=O)Oc1ccc(NC(=O)C(Cl)Cl)cc1` belongs 1.9. Still for that read-out and setting: under `CCCCCCOC(=O)c1ccc(N)cc1` stands 3.96; under `COC(=O)n1c(-c2cscn2)nc2ccccc21`, 2.05.

Consider `CCOC(=O)CCC(=O)OCC`, for which the logP was determined as 1.2. Still for that read-out and setting: to `C=Cc1cc(C)ccc1C` belongs 4.16; to `CCOC(=O)C1CNC(=O)CC1C(=O)OCC` (stereo not given), -0.03; to `Clc1cc2c(Cl)c(Cl)c(Cl)c(Cl)c2c(Cl)c1Cl`, 8.2. As to `CCc1c(C(=O)O)c(=O)cnn1-c1ccc(Cl)cc1`, the logP is -2.2 and the solubility is 2510 mM (≈ 700000 µg/mL). Turning to `CC(O)COC(=O)[C@@H](N)Cc1ccc(O)c(O)c1` (stereo not given in full), the logP is -0.49. `NC(=O)C=Cc1ccc([N+](=O)[O-])o1` showed a logP of 0.65.

In the case of `CSCCCOc1ccc([N+](=O)[O-])cc1`, the logP was 3.24. In turn, `CC(=O)c1ccc2cc(C(C)C(=O)OCC(=O)N(C)C)ccc2c1` (stereo not given) gave a logP of 2.05. Still for that read-out and setting: under `O=C(O)CC[Se]Cc1ccccc1` stands 1.67.

Staying with this data set, now noted: 20 °C.
In turn, `Clc1ccc(-c2ccc(Cl)cc2)cc1` came in with a solubility of 0.000278 mM (≈ 0.062 µg/mL). `COCCO[Si](CCCl)(OCCOC)OCCOC` had a solubility of 78.9 mM (≈ 25000 µg/mL).

The data set is the same for the next values; noted with them: 23.0 °C.
With `C=C1C2CCC(C2)C1(C)C` (stereo not given), the log10 OH rate constant (cm³/molecule/s) is -10.3. Same read-out and setting: under `COC(OC)OC` stands -11.2.

Still in this data set, the particulars now being: 24.0 °C.
In the case of `c1ccc2c(c1)sc1ccccc12`, the log10 OH rate constant (cm³/molecule/s) is -11.1. The same measure, in the same setting: under `COc1ccccc1OC` stands -10.5.

Staying with this data set, now noted: 25 °C.
As to `CCN(CCO)c1ccccc1`, the solubility turned out to be 12.1 mM (≈ 2000 µg/mL). `NNC(=O)c1ccncc1` came in with a solubility of 1020 mM (≈ 140000 µg/mL). On the same count and under the same terms, to `Clc1cccc2cccc(Cl)c12` belongs 0.0016 mM (≈ 0.315 µg/mL); to `O=C(O)CCCOc1cc(Cl)c(Cl)cc1Cl`, 0.148 mM (≈ 42 µg/mL); to `Clc1ccc2ccccc2c1`, 0.0719 mM (≈ 11.7 µg/mL).

The compound `Cc1cc(Cl)ccc1O` registered a solubility of 28.1 mM (≈ 4000 µg/mL). Still for that read-out and setting: under `C=Cc1cccc(C)c1` stands 0.753 mM (≈ 89 µg/mL).

Consider `Nc1ccc(-c2ccc(N)c(Cl)c2)cc1Cl`, for which the solubility was 0.0122 mM (≈ 3.1 µg/mL). Still for that read-out and setting: to `OCC(Br)CBr` (stereo not given) belongs 239 mM (≈ 52000 µg/mL). Same read-out and setting: under `O=C(O)c1ccc[n+]([O-])c1` stands 50.3 mM (≈ 7000 µg/mL); under `Cc1ccccc1N`, 155 mM (≈ 16600 µg/mL). The same measure, in the same setting: under `CCS(=O)(=O)c1cccnc1S(=O)(=O)NC(=O)Nc1nc(OC)cc(OC)n1` stands < 0.0232 mM. Compound `CCC(=O)OCC(C)C` displayed a solubility of 13.1 mM (≈ 1700 µg/mL). Still for that read-out and setting: under `c1ccc2c(c1)ccc1ccc3ccccc3c12` stands 1.51e-05 mM (≈ 0.00345 µg/mL); under `CCF`, 44.9 mM (≈ 2160 µg/mL); under `C=C(C)C(=O)OCCCC`, 5.63 mM (≈ 800 µg/mL). On the same count and under the same terms, under `c1ccc2nc3ccccc3cc2c1` stands 0.214 mM (≈ 38.4 µg/mL); under `FC(F)(Cl)Cl`, 2.32 mM (≈ 280 µg/mL); under `O=[N+]([O-])c1ccc(Nc2ccc(O)cc2)c([N+](=O)[O-])c1`, 0.0036 mM (≈ 0.99 µg/mL). Still for that read-out and setting: to `O=C(Oc1ccccc1)c1ccccc1C(=O)Oc1ccccc1` belongs 0.000258 mM (≈ 0.082 µg/mL). In turn, `C#CCBr` showed a solubility of 125 mM (≈ 14900 µg/mL). Regarding `C=C(C)C1CC=C(C)CC1` (stereo not given), the solubility is 0.0777 mM (≈ 10.6 µg/mL). Still for that read-out and setting: to `ClCOCCl` belongs 191 mM (≈ 22000 µg/mL).

The compound `Oc1cc(Cl)cc(Cl)c1` returned a solubility of 27.6 mM (≈ 4500 µg/mL). Same read-out and setting: to `c1ccc2c(c1)-c1cccc3cccc-2c13` belongs 0.00114 mM (≈ 0.231 µg/mL).

Staying with this data set, now noted: 25.0 °C.
As for `O=CC(F)Cl` (stereo not given), the log10 OH rate constant (cm³/molecule/s) is -11.7. For the compound `CC(Br)Br`, the log10 OH rate constant (cm³/molecule/s) is -12.6. In the case of `Clc1ccc(-c2ccc(Cl)cc2)cc1`, the log10 OH rate constant (cm³/molecule/s) was -11.7. In the case of `CC/C=C\CCOC(C)=O`, the log10 OH rate constant (cm³/molecule/s) is -10.1. Still for that read-out and setting: under `FC(F)(F)C(F)(F)N(C(F)(F)C(F)(F)F)C(F)(F)C(F)(F)F` stands < -15.2.

For the compound `CCCCBr`, the log10 OH rate constant (cm³/molecule/s) is -11.6. The same measure, in the same setting: under `FC(F)(F)I` stands -13.3; under `c1ccc2c(c1)-c1cccc3cccc-2c13`, -10.3.

Staying with this data set, now noted: 27 °C.
As for `Cc1c2ccccc2cc2ccc3ccccc3c12`, the solubility was found to be 0.000272 mM (≈ 0.066 µg/mL).

The data set is the same for the next values; noted with them: 27.0 °C.
In the case of `CCc1ccco1`, the log10 OH rate constant (cm³/molecule/s) is -9.97. Regarding `Cc1ccc(O)c(O)c1`, the log10 OH rate constant (cm³/molecule/s) was -9.81.

Still in this data set, the particulars now being: 30 °C.
In turn, `Nc1ccccc1[N+](=O)[O-]` showed a solubility of 10.6 mM (≈ 1470 µg/mL). The same measure, in the same setting: to `Cc1ccc([N+](=O)[O-])cc1` belongs 3.22 mM (≈ 442 µg/mL); to `Brc1ccccc1`, 2.84 mM (≈ 446 µg/mL).

For the origin of these results see the OPERA property sets (Mansouri et al. 2018).
